According to patent publication US4748161A, “Triterpenyl esters of organic acids and hypolipidemic agents composed of them” (Amano Pharmaceutical Co., Ltd., priority 1984, dated 1988):
“And” between values parts separate entries of the source, which are not always exact repeats. Equal entries are not always repeated. Where two headings read alike, the source gives them in different places.

How the values were obtained:
[1] = system: serum lipids and serum lipid hydroperoxide; test: Pharmacological test method A for anti-hyperlipidemic activity (serum lipids, 2 weeks feeding); assay type: in vivo, male Wistar strain rats; settings: for AI [(TC - HDL-C)/(HDL-C)] / HDL-C in serum / LPO in serum / PL in serum / TC in serum / TG in serum: 1% in hyperlipidemic diet, 2 weeks
Summary of the method: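 Male Wistar rats (100±lg, 10 per group) fed 10 g/day for 2 weeks of a 1% cholesterol/0.5% cholic acid diet, test groups with 1% each of cycloartenol, 24-methylenecycloartanol and cyclobranol. After 16 h fast, aortic blood serum assayed enzymatically/colorimetrically for TC, HDL-C, TG, PL, LPO.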

[2] = system: serum lipids and serum lipid hydroperoxide; test: Pharmacological test method B for anti-hyperlipidemic activity (serum lipids, 4 weeks feeding); assay type: in vivo, male Wistar strain rats; design: AI Diff.: unit not given here; settings: for change in vivo at 1 % in diet: Rattus norvegicus, po, 672 h; for change in vivo at 1 % in diet / AI Diff. / HDL-C Diff. / LPO Diff. / PL Diff. / TG Diff.: versus control group; for TG % of diff. (Table 20) / TG Diff. (Table 20): Table 20, versus control group
Description: Pharmacological test method B for anti-hyperlipidemic acitivity (the term "method B" was used in the present specification)
Male Wistar strain rats (100±1 g, each 8 rats were formed into a group except that the control group fed with a hyperlipidemic diet was formed of 16 rats) were used as test animals. A powdery diet (CE-2, supplied by Clea Japan, Inc.) was used as ordinary diet. The hyperlipidemic diet was prepared by fortifying the ordinary diet with cholesterol (1%) and cholic acid (0.5%). Each test compound (1%) for administration was admixed with the hyperlipidemic diet. Each two rats were kept in a cage and given the prescribed diet and water ad libitum. Thus the rats were fed for 4 weeks at a constant temperature of 23±1° C. and a constant R.H. of 55±5%. Finally, the rats were fasted from food except water for 16 hours (from 4 p.m. of the 28th test day to 8 a.m. of the 29th test day), and under anesthesia with pentbarbital sodium (tradename: Nembutal), blood was taken from each rat through the descending abdominal arota. Then, TC, HDL-C, TG, PL, and LPO in the serum were measured in the following manner.
A TC kit-K (supplied by Nippon Shoji Kaisha, Ltd.) was used. The principle of this determination is as follows: The ester of cholesterol in the serum is hydrolyzed with cholesterol-ester hydrolase into free cholesterol and fatty acids. All the free cholesterol is oxidized with cholesterol oxydase to form Δ^4 -cholestenone and hydrogen peroxide. Phenol and 4-aminoantipyrin are oxidatively condensed together by the formed hydrogen peroxide and peroxydase. The produced red quinone coloring matter is measured by colorimetry for absorbance at 500 nm using a spectrophotometer, thereby determining the TC:
The color-developing liquid (3.0 ml) is well mixed with the sample serum (0.02 ml). The mixture once heated at 37° C. for 15 minutes, is measured for absorbance at 500 nm with a spectrophotometer. The found absorbance is denoted by EA. On the other hand, the color-developing liquid (3.0 ml) is well mixed with the standard solution. The mixture is treated and measured for absorbance at 500 nm in the same manner as the above. This found absorbance is denoted by ES. Both EA and ES are determined with reference to the value of the blank test conducted using the color-developing liquid (3.0 ml) alone. [formula]
An HDL-C kit-N (supplied by Nippon Shoji Kaisha, Ltd.) was used. […] (VLDL) and lo density lipoprotein (LDL) in the serum is precipitated by the action of heparin. The precipitate is separated by centrifugation. High density lipoprotein (HDL) is dissolved in the separated supernatant. Esters of cholesterol in this fraction is hydrolyzed with cholesterol-ester hydrolase into free cholesterol and fatty acids. All the free cholesterol is oxidized with cholesterol oxydase to form Δ^4 -cholestenone and hydrogen peroxide. Phenol and 4-aminoantipyrine are oxidatively condensed together by the formed hydrogen peroxide and peroxydase. The produced red quinone coloring matter is measured by colorimetry for absorbance at 500 nm using a spectrophotometer, thereby determining the HDL-C.
A PL kit-K (supplied by Nippon Shoji Kaisha, Ltd.) was used for the determination. Lecithin, sphingomyelin, and lysolecithin are decomposed by phospholipase D into choline and phosphatidic acid, N-acylsphingosyl phosphate, or lysophosphatidic acid, respectively. The resulting choline is quantitatively decomposed by choline oxydase into hydrogen peroxide and betaine. With this hydrogen peroxide, and aid of peroxydase, phenol and 4-aminoantipyrin are condensed into red quinone pigment, then the absorbance at 500 nm of which is measured with a spectrophotometer, thereby determining the PL. […]

Compound	AI [(TC - HDL-C)/(HDL-C)] [1]	HDL-C in serum [1]	LPO in serum [1]	PL in serum [1]	TC in serum [1]	TG in serum [1]	AI % of diff. ([1]; versus control group)	AI Diff. ([1]; versus control group)	HDL-C % of diff. ([1]; versus control group)	HDL-C Diff. ([1]; versus control group)	LPO % of diff. ([1]; versus control group)	LPO Diff. ([1]; versus control group)	PL % of diff. ([1]; versus control group)	PL Diff. ([1]; versus control group)	TC % of diff. ([1]; versus control group)	TC Diff. ([1]; versus control group)	TG % of diff. ([1]; versus control group)	TG Diff. ([1]; versus control group)	change in vivo at 1 % in diet ([2]; read-out: AI % of diff.)	change in vivo at 1 % in diet ([2]; read-out: HDL-C % of diff.)	also measured
CC(C)=C(C)CCC(C)C1CCC2(C)C3CCC4C(C)(C)C(OC(=O)C=Cc5ccc(N)cc5)CCC45CC35CCC12C (stereo not drawn) [Example 104, cyclobranyl ester of p-aminocinnamic acid]	3.205	48.7 mg/dL	2.01 nmol/mL	143.7 mg/dL	204.8 mg/dL	27.4 mg/dL	-59.1%	-4.635	+32.0%	+11.8 mg/dl	-28.2%	-0.79 nmol/mL	-13.2%	-21.9 mg/dL	-37.2%	-121.4 mg/dL	-19.4%	-6.6 mg/dL	–	–	–
CC(C)=CCCC(C)C1CCC2(C)C3CCC4C(C)(C)C(OC(=O)C=Cc5cccc(N)c5)CCC45CC35CCC12C (stereo not drawn) [Example 108, cycloartenyl ester of m-aminocinnamic acid]	3.627	46.6 mg/dL	2.20 nmol/mL	151.4 mg/dL	215.6 mg/dL	29.0 mg/dL	-53.7%	-4.213	+26.3%	+9.7 mg/dl	-21.4%	-0.60 nmol/mL	-8.6%	-14.2 mg/dL	-33.9%	-110.6 mg/dL	-14.7%	-5.0 mg/dL	–	–	–
C=C(CCC(C)C1CCC2(C)C3CCC4C(C)(C)C(OC(=O)C=Cc5cccc(N)c5)CCC45CC35CCC12C)C(C)C (stereo not drawn) [Example 112, 24-methylenecycloartanyl ester of m-aminocinnamic acid]	3.624	46.8 mg/dL	2.16 nmol/mL	150.4 mg/dL	216.4 mg/dL	28.5 mg/dL	-53.8%	-4.216	+26.8%	+9.9 mg/dl	-22.9%	-0.64 nmol/mL	–	-15.2 mg/dL	-33.7%	-109.8 mg/dL	-16.2%	-5.5 mg/dL	–	–	–
CCC(=O)Oc1ccc(C=C(C)C(=O)OC2CCC34CC35CCC3(C)C(C(C)CCC=C(C)C)CCC3(C)C5CCC4C2(C)C)cc1OC (stereo not drawn) [Example 113, cycloartenyl ester of 3-methoxy-4-propionyloxy-α-methyl cinnamic acid]	–	–	–	–	–	–	–	–	–	–	–	–	–	–	–	–	–	–	-63.5%	55.6%	change in vivo at 1 % in diet ([2]; read-out: LPO % of diff.): -12.1%; change in vivo at 1 % in diet ([2]; read-out: PL % of diff.): -29.7%; change in vivo at 1 % in diet ([2]; read-out: TG % of diff.): -25.7%; TG % of diff. (Table 20) [2]: -39.4%; TG Diff. (Table 20) [2]: -164.7 mg/dL; AI Diff. [2]: -15.96; HDL-C Diff. [2]: +8.9 mg/dl; LPO Diff. [2]: -0.42 nmol/mL; PL Diff. [2]: -52.5 mg/dL; TG Diff. [2]: -20.9 mg/dL
C=C(CCC(C)C1CCC2(C)C3CCC4C(C)(C)C(OC(=O)C(C)=Cc5ccc(OC(=O)CC)c(OC)c5)CCC45CC35CCC12C)C(C)C (stereo not drawn) [Example 117, 24-methylenecycloartanyl ester of 3-methoxy-4-propionyloxy-α-methylcinnamic acid]	–	–	–	–	–	–	–	–	–	–	–	–	–	–	–	–	–	–	-64.3%	63.1%	change in vivo at 1 % in diet ([2]; read-out: LPO % of diff.): -24.5%; change in vivo at 1 % in diet ([2]; read-out: PL % of diff.): -28.3%; change in vivo at 1 % in diet ([2]; read-out: TG % of diff.): -21.6%; TG % of diff. (Table 20) [2]: -37.7%; TG Diff. (Table 20) [2]: -157.9 mg/dL; AI Diff. [2]: -16.17; HDL-C Diff. [2]: +10.1 mg/dl; LPO Diff. [2]: -0.85 nmol/mL; PL Diff. [2]: -50.0 mg/dL; TG Diff. [2]: -17.6 mg/dL
COc1ccc([N+](=O)[O-])cc1C(=O)OC1CCC23CC24CCC2(C)C(C(C)CCC=C(C)C)CCC2(C)C4CCC3C1(C)C (stereo not drawn) [Example 170, cycloartenyl ester of 2-methoxy-5-nitrobenzoic acid]	–	–	–	–	–	–	–	–	–	–	–	–	–	–	–	–	–	–	-74.9%	123%	change in vivo at 1 % in diet ([2]; read-out: LPO % of diff.): -14.1%; change in vivo at 1 % in diet ([2]; read-out: PL % of diff.): -28.9%; change in vivo at 1 % in diet ([2]; read-out: TG % of diff.): -21.9%; TG % of diff. (Table 20) [2]: -37.5%; TG Diff. (Table 20) [2]: -157.0 mg/dL; AI Diff. [2]: -18.83; HDL-C Diff. [2]: +19.7 mg/dl; LPO Diff. [2]: -0.49 nmol/mL; PL Diff. [2]: -51.1 mg/dL; TG Diff. [2]: -17.8 mg/dL; HDL-C rise compared with normal diet group ([2]; versus normal diet group): remarkable rises
COc1ccc(N)cc1C(=O)OC1CCC23CC24CCC2(C)C(C(C)CCC=C(C)C)CCC2(C)C4CCC3C1(C)C (stereo not drawn) [Example 171, cycloartenyl ester of 5-amino-2-methoxybenzoic acid]	–	–	–	–	–	–	–	–	–	–	–	–	–	–	–	–	–	–	-71.6%	51.3%	change in vivo at 1 % in diet ([2]; read-out: LPO % of diff.): -36%; change in vivo at 1 % in diet ([2]; read-out: PL % of diff.): -33%; change in vivo at 1 % in diet ([2]; read-out: TG % of diff.): -19.3%; TG % of diff. (Table 20) [2]: -53.0%; TG Diff. (Table 20) [2]: -221.6 mg/dL; AI Diff. [2]: -18.02; HDL-C Diff. [2]: +8.2 mg/dl; LPO Diff. [2]: -1.25 nmol/mL; PL Diff. [2]: -58.4 mg/dL; TG Diff. [2]: -15.7 mg/dL
Cycloartenyl-3,4-dipropionyloxycinnamate [Example 3]	1.605	76.8 mg/dL	2.40 nmol/mL	167.0 mg/dL	200.1 mg/dL	33.3 mg/dL	+5.8%	–	-5.8%	-4.7 mg/dL	+5.8%	+0.13 nmol/ml	-3.8%	-6.6 mg/dL	-2.4%	-5.0 mg/dL	-2.9%	-1.0 mg/dL	–	–	AI Diff. ([1]; Table 2, versus control group): +0.088 mg/dl
cycloartenyl-3,4-diacetoxycinnamate [Example 1]	1.410	72.0 mg/dL	2.03 nmol/mL	173.7 mg/dL	173.5 mg/dL	38.0 mg/dL	-7.1%	–	-11.6%	-9.5 mg/dL	-10.6%	-0.24 nmol/mL	+0.06%	+0.1 mg/dl	-15.4%	-31.6 mg/dL	+10.9%	+3.7 mg/dl	–	–	AI Diff. ([1]; Table 2, versus control group): -1.107 mg/dL
cycloartenyl-3,4-dihydroxycinnamate [Example 2]	0.860 and 1.180	90.3 mg/dL and 89.2 mg/dL	1.98 nmol/mL and 2.05 nmol/mL	168.2 mg/dL and 170.2 mg/dL	168.0 mg/dL and 194.5 mg/dL	30.6 mg/dL and 41.3 mg/dL	–	-0.504	–	–	-12.8% and -11.2%	–	-3.1% and -5.0%	–	-18.1% and -10.4%	–	-10.9% and -3.5%	–	–	–	AI Diff. ([1]; Table 2, versus control group): -0.657 mg/dL
